# Reference: ChEMBL document CHEMBL1150977, “A quantitative analysis of kinase inhibitor selectivity” (Nat Biotechnol, 2008)
# Biological target: T1, Tyrosine-protein kinase receptor UFO (Homo sapiens, UniProt P30530)
# T1 sequence (P30530 whole entry): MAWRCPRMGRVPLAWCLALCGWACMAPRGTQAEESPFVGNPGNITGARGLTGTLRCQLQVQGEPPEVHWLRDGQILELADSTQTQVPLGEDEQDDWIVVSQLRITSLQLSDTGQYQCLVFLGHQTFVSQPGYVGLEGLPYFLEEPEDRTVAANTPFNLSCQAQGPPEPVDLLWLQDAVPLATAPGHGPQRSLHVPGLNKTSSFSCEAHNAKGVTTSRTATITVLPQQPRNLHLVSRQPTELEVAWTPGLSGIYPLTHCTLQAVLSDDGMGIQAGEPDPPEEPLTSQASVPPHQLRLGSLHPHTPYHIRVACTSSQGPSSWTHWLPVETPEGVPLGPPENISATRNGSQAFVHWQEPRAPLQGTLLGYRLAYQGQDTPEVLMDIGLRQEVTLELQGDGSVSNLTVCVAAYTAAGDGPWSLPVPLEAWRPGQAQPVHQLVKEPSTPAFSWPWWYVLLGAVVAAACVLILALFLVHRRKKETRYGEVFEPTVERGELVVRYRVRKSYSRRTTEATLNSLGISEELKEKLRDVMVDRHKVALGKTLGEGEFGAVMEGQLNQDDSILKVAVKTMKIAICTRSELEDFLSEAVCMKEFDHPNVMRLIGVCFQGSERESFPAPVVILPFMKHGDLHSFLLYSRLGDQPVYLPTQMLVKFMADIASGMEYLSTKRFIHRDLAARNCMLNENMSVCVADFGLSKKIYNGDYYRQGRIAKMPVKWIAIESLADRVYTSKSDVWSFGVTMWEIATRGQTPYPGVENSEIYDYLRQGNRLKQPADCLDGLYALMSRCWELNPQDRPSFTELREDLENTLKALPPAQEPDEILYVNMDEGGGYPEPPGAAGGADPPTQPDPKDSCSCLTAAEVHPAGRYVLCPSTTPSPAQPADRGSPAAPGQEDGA
row,Compound,Kd [µM]
1,CCOc1cc2ncc(C#N)c(Nc3ccc(F)c(Cl)c3)c2cc1NC(=O)/C=C/CN(C)C [PELITINIB],0.92
2,Oc1ccc(-c2nc(-c3ccncc3)c(-c3ccc(F)cc3)[nH]2)cc1 [SB-202190],> 10
3,COCC(=O)NC/C=C/c1ccc2ncnc(Nc3ccc(Oc4ccc(C)nc4)c(C)c3)c2c1 [CP-724714],> 10
4,NC(=O)c1ccc(-c2nc(-c3ccc4c(c3)OCO4)c(-c3ccccn3)[nH]2)cc1 [SB-431542],> 10

# Biological target: Fibroblast growth factor receptor 2 (Homo sapiens, UniProt P21802)
# Sequence (P21802 whole entry): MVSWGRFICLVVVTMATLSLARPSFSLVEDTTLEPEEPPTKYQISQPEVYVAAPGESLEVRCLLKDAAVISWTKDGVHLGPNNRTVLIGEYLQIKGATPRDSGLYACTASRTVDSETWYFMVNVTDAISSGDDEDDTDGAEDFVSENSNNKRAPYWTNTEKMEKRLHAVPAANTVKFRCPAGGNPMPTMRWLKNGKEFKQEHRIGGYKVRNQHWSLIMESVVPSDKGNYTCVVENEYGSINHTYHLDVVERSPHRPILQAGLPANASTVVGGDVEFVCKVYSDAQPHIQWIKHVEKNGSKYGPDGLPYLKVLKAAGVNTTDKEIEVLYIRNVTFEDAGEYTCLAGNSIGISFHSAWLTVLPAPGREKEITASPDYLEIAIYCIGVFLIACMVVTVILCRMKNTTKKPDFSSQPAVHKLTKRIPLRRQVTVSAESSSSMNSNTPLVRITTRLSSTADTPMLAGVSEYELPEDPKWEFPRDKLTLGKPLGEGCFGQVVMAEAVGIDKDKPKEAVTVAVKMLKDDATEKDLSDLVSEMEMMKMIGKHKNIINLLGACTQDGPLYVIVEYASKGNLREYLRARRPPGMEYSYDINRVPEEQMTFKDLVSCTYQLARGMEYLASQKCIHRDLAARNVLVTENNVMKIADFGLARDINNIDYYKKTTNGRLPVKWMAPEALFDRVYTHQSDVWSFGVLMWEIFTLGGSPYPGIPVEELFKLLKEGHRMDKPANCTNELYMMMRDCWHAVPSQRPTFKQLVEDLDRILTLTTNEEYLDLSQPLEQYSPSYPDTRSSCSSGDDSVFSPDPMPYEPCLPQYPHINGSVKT
row,Compound,Kd [µM]
1,CCOc1cc2ncc(C#N)c(Nc3ccc(F)c(Cl)c3)c2cc1NC(=O)/C=C/CN(C)C [PELITINIB],> 10
2,Oc1ccc(-c2nc(-c3ccncc3)c(-c3ccc(F)cc3)[nH]2)cc1 [SB-202190],> 10
3,COCC(=O)NC/C=C/c1ccc2ncnc(Nc3ccc(Oc4ccc(C)nc4)c(C)c3)c2c1 [CP-724714],> 10
4,NC(=O)c1ccc(-c2nc(-c3ccc4c(c3)OCO4)c(-c3ccccn3)[nH]2)cc1 [SB-431542],> 10

# Biological target: Serine/threonine-protein kinase SIK1 (Homo sapiens, UniProt P57059)
# Sequence (P57059 whole entry): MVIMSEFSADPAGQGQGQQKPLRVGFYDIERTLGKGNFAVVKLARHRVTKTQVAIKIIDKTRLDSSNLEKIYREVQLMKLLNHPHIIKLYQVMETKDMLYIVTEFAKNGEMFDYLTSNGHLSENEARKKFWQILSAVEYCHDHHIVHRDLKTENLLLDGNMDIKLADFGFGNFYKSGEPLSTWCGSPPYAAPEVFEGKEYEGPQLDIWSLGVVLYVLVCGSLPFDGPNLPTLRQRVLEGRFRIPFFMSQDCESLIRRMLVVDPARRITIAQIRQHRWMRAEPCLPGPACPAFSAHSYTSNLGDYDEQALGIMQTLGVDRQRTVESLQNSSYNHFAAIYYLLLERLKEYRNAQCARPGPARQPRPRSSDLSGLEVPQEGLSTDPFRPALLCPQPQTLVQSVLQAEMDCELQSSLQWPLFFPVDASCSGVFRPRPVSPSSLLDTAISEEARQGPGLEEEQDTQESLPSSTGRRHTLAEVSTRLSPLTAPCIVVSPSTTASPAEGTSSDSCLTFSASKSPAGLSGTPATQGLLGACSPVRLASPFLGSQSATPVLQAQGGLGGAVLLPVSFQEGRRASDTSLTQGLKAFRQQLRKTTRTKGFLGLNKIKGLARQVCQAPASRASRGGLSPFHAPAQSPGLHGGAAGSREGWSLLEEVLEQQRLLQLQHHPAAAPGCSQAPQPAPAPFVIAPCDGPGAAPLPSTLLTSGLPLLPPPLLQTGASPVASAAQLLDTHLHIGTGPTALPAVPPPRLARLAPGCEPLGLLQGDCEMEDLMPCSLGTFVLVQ
row,Compound,Kd [µM]
1,CCOc1cc2ncc(C#N)c(Nc3ccc(F)c(Cl)c3)c2cc1NC(=O)/C=C/CN(C)C [PELITINIB],> 10
2,Oc1ccc(-c2nc(-c3ccncc3)c(-c3ccc(F)cc3)[nH]2)cc1 [SB-202190],> 10
3,COCC(=O)NC/C=C/c1ccc2ncnc(Nc3ccc(Oc4ccc(C)nc4)c(C)c3)c2c1 [CP-724714],> 10
4,NC(=O)c1ccc(-c2nc(-c3ccc4c(c3)OCO4)c(-c3ccccn3)[nH]2)cc1 [SB-431542],> 10

# Biological target: Serine/threonine-protein kinase 24 (Homo sapiens, UniProt Q9Y6E0)
# Sequence (Q9Y6E0 whole entry): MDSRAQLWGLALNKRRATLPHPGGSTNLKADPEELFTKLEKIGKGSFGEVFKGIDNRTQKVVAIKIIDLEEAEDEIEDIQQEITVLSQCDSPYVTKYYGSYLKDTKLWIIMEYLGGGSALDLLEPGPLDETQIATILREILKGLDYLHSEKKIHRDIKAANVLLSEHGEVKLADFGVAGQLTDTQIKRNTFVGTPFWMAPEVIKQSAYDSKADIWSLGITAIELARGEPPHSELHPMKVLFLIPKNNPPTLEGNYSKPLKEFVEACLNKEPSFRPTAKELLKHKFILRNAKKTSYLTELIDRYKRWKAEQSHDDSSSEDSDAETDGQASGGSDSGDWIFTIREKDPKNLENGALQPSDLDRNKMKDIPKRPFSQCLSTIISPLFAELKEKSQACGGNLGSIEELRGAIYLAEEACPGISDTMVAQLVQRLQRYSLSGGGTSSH
row,Compound,Kd [µM]
1,CCOc1cc2ncc(C#N)c(Nc3ccc(F)c(Cl)c3)c2cc1NC(=O)/C=C/CN(C)C [PELITINIB],2.1
2,Oc1ccc(-c2nc(-c3ccncc3)c(-c3ccc(F)cc3)[nH]2)cc1 [SB-202190],> 10
3,COCC(=O)NC/C=C/c1ccc2ncnc(Nc3ccc(Oc4ccc(C)nc4)c(C)c3)c2c1 [CP-724714],> 10
4,NC(=O)c1ccc(-c2nc(-c3ccc4c(c3)OCO4)c(-c3ccccn3)[nH]2)cc1 [SB-431542],> 10
5,CCN1CCN(Cc2ccc(NC(=O)Nc3ccc(Oc4cc(NC)ncn4)cc3)cc2C(F)(F)F)CC1 [AST-487],> 10

# Biological target: T2, 3-phosphoinositide-dependent protein kinase 1 (Homo sapiens, UniProt O15530)
# T2 sequence (O15530 whole entry): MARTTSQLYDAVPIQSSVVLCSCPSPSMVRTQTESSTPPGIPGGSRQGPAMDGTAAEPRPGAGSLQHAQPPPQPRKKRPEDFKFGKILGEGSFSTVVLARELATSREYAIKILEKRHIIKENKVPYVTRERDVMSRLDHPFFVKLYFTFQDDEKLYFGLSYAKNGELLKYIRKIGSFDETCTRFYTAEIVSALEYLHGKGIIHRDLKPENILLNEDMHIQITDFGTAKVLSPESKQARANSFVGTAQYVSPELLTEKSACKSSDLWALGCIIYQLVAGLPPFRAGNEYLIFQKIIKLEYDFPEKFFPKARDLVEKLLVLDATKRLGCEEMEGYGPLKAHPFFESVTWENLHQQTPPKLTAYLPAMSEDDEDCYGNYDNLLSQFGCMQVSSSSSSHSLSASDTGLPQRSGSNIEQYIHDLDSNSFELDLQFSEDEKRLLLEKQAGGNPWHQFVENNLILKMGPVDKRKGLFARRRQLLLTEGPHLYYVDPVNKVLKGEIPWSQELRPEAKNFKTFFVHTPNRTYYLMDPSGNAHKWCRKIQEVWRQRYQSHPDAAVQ
row,Compound,Kd [µM]
1,CCOc1cc2ncc(C#N)c(Nc3ccc(F)c(Cl)c3)c2cc1NC(=O)/C=C/CN(C)C [PELITINIB],> 10
2,Nc1nc(Nc2ccc(S(N)(=O)=O)cc2)nn1C(=O)c1c(F)cccc1F [JNJ-7706621],3.1
3,Oc1ccc(-c2nc(-c3ccncc3)c(-c3ccc(F)cc3)[nH]2)cc1 [SB-202190],> 10
4,COCC(=O)NC/C=C/c1ccc2ncnc(Nc3ccc(Oc4ccc(C)nc4)c(C)c3)c2c1 [CP-724714],> 10
5,NC(=O)c1ccc(-c2nc(-c3ccc4c(c3)OCO4)c(-c3ccccn3)[nH]2)cc1 [SB-431542],> 10

# Biological target: Dual specificity testis-specific protein kinase 1 (Homo sapiens, UniProt Q15569)
# Sequence (Q15569 whole entry): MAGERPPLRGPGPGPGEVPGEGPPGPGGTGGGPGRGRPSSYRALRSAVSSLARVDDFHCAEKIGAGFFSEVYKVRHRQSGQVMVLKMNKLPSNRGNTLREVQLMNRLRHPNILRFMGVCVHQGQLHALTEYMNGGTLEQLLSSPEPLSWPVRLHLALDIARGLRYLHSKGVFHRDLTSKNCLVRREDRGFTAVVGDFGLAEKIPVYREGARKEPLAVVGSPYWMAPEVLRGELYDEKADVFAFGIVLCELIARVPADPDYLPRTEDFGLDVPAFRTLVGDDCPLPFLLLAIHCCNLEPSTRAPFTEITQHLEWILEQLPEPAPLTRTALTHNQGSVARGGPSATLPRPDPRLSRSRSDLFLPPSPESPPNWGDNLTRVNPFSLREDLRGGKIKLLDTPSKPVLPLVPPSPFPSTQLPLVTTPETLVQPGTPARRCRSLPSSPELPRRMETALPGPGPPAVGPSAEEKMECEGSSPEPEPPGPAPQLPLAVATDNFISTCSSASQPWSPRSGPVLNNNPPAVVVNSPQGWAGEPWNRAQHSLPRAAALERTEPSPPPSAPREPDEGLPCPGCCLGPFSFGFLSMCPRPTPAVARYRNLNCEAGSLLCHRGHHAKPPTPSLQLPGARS
row,Compound,Kd [µM]
1,CCOc1cc2ncc(C#N)c(Nc3ccc(F)c(Cl)c3)c2cc1NC(=O)/C=C/CN(C)C [PELITINIB],> 10
2,Nc1nc(Nc2ccc(S(N)(=O)=O)cc2)nn1C(=O)c1c(F)cccc1F [JNJ-7706621],3.1
3,Oc1ccc(-c2nc(-c3ccncc3)c(-c3ccc(F)cc3)[nH]2)cc1 [SB-202190],> 10
4,COCC(=O)NC/C=C/c1ccc2ncnc(Nc3ccc(Oc4ccc(C)nc4)c(C)c3)c2c1 [CP-724714],> 10

# Biological target: T3, Activin receptor type-1 (Homo sapiens, UniProt Q04771)
# T3 sequence (Q04771 whole entry): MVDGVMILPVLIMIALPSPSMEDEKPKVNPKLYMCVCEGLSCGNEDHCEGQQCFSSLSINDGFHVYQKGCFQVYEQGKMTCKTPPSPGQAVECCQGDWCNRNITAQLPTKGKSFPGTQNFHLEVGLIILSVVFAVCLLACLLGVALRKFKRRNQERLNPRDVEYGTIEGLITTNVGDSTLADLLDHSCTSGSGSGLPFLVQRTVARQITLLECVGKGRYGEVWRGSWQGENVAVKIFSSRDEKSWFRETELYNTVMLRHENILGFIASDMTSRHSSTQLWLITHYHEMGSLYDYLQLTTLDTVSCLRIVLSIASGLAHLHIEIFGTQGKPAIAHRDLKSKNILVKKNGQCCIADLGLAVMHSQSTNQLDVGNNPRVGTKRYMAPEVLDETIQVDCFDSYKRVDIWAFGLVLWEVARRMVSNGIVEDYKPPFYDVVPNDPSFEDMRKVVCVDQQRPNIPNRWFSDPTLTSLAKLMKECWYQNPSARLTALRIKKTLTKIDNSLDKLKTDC
row,Compound,Kd [µM]
1,CCOc1cc2ncc(C#N)c(Nc3ccc(F)c(Cl)c3)c2cc1NC(=O)/C=C/CN(C)C [PELITINIB],> 10
2,Oc1ccc(-c2nc(-c3ccncc3)c(-c3ccc(F)cc3)[nH]2)cc1 [SB-202190],> 10
3,COCC(=O)NC/C=C/c1ccc2ncnc(Nc3ccc(Oc4ccc(C)nc4)c(C)c3)c2c1 [CP-724714],> 10
4,NC(=O)c1ccc(-c2nc(-c3ccc4c(c3)OCO4)c(-c3ccccn3)[nH]2)cc1 [SB-431542],> 10

# Biological target: Mitogen-activated protein kinase 4 (Homo sapiens, UniProt P31152)
# Sequence (P31152 whole entry): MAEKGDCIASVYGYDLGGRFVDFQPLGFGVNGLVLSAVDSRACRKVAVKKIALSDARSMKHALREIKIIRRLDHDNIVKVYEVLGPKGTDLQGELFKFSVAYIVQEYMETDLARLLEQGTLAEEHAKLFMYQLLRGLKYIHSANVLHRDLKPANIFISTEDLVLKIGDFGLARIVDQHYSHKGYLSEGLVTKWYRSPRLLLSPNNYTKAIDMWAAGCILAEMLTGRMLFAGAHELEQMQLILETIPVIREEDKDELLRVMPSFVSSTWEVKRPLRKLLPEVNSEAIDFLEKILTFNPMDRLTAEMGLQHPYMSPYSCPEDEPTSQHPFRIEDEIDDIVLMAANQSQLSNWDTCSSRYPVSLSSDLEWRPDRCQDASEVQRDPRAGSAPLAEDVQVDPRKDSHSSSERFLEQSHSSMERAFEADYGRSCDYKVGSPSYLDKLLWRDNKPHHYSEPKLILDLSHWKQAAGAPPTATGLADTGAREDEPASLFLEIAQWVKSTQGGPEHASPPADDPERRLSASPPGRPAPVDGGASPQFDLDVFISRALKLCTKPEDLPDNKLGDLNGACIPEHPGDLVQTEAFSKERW
row,Compound,Kd [µM]
1,CCOc1cc2ncc(C#N)c(Nc3ccc(F)c(Cl)c3)c2cc1NC(=O)/C=C/CN(C)C [PELITINIB],> 10
2,Nc1nc(Nc2ccc(S(N)(=O)=O)cc2)nn1C(=O)c1c(F)cccc1F [JNJ-7706621],1.6
3,Oc1ccc(-c2nc(-c3ccncc3)c(-c3ccc(F)cc3)[nH]2)cc1 [SB-202190],> 10
4,COCC(=O)NC/C=C/c1ccc2ncnc(Nc3ccc(Oc4ccc(C)nc4)c(C)c3)c2c1 [CP-724714],> 10
5,NC(=O)c1ccc(-c2nc(-c3ccc4c(c3)OCO4)c(-c3ccccn3)[nH]2)cc1 [SB-431542],> 10

# Biological target: Serine/threonine-protein kinase MRCK beta (Homo sapiens, UniProt Q9Y5S2)
row,Compound,Kd [µM]
1,CCOc1cc2ncc(C#N)c(Nc3ccc(F)c(Cl)c3)c2cc1NC(=O)/C=C/CN(C)C [PELITINIB],> 10
2,Nc1nc(Nc2ccc(S(N)(=O)=O)cc2)nn1C(=O)c1c(F)cccc1F [JNJ-7706621],> 10
3,Oc1ccc(-c2nc(-c3ccncc3)c(-c3ccc(F)cc3)[nH]2)cc1 [SB-202190],4.2
4,COCC(=O)NC/C=C/c1ccc2ncnc(Nc3ccc(Oc4ccc(C)nc4)c(C)c3)c2c1 [CP-724714],> 10
5,NC(=O)c1ccc(-c2nc(-c3ccc4c(c3)OCO4)c(-c3ccccn3)[nH]2)cc1 [SB-431542],> 10

# Biological target: T4, Serine/threonine-protein kinase NLK (Homo sapiens, UniProt Q9UBE8)
# T4 sequence (Q9UBE8 whole entry): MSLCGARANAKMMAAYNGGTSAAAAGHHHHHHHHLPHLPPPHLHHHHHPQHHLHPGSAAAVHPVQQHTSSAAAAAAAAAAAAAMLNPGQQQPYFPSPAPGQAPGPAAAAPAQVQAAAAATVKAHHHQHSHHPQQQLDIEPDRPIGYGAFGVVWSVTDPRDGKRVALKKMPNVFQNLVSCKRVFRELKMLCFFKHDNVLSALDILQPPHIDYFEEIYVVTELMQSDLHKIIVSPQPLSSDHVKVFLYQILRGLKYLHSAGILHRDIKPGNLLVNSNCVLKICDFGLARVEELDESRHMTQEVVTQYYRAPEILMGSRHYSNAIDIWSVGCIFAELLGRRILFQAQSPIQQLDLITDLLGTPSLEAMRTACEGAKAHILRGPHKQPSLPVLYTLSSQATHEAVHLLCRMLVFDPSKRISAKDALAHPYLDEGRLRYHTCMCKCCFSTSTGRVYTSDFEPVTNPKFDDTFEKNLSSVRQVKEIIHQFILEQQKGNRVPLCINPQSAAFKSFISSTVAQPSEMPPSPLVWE
row,Compound,Kd [µM]
1,CCOc1cc2ncc(C#N)c(Nc3ccc(F)c(Cl)c3)c2cc1NC(=O)/C=C/CN(C)C [PELITINIB],> 10
2,Nc1nc(Nc2ccc(S(N)(=O)=O)cc2)nn1C(=O)c1c(F)cccc1F [JNJ-7706621],> 10
3,Oc1ccc(-c2nc(-c3ccncc3)c(-c3ccc(F)cc3)[nH]2)cc1 [SB-202190],0.028
4,COCC(=O)NC/C=C/c1ccc2ncnc(Nc3ccc(Oc4ccc(C)nc4)c(C)c3)c2c1 [CP-724714],> 10
5,NC(=O)c1ccc(-c2nc(-c3ccc4c(c3)OCO4)c(-c3ccccn3)[nH]2)cc1 [SB-431542],> 10

# Biological target: RAC-gamma serine/threonine-protein kinase (Homo sapiens, UniProt Q9Y243)
# Sequence (Q9Y243 whole entry): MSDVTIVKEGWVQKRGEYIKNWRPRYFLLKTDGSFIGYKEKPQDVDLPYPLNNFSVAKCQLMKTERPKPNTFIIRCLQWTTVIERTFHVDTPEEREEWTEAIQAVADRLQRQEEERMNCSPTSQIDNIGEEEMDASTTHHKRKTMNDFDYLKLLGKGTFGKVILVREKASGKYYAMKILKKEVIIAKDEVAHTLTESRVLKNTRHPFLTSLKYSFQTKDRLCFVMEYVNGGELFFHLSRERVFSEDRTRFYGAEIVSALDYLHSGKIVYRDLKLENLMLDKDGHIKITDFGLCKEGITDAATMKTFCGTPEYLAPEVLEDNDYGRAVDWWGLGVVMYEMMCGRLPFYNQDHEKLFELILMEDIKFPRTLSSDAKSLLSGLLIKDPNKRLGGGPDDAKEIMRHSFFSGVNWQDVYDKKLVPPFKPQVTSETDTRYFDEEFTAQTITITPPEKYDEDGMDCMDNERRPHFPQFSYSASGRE
row,Compound,Kd [µM]
1,CCOc1cc2ncc(C#N)c(Nc3ccc(F)c(Cl)c3)c2cc1NC(=O)/C=C/CN(C)C [PELITINIB],> 10
2,Nc1nc(Nc2ccc(S(N)(=O)=O)cc2)nn1C(=O)c1c(F)cccc1F [JNJ-7706621],> 10
3,Oc1ccc(-c2nc(-c3ccncc3)c(-c3ccc(F)cc3)[nH]2)cc1 [SB-202190],> 10
4,COCC(=O)NC/C=C/c1ccc2ncnc(Nc3ccc(Oc4ccc(C)nc4)c(C)c3)c2c1 [CP-724714],> 10
5,NC(=O)c1ccc(-c2nc(-c3ccc4c(c3)OCO4)c(-c3ccccn3)[nH]2)cc1 [SB-431542],> 10

# Biological target: Serine/threonine-protein kinase PAK 4 (Homo sapiens, UniProt O96013)
# Sequence (O96013 whole entry): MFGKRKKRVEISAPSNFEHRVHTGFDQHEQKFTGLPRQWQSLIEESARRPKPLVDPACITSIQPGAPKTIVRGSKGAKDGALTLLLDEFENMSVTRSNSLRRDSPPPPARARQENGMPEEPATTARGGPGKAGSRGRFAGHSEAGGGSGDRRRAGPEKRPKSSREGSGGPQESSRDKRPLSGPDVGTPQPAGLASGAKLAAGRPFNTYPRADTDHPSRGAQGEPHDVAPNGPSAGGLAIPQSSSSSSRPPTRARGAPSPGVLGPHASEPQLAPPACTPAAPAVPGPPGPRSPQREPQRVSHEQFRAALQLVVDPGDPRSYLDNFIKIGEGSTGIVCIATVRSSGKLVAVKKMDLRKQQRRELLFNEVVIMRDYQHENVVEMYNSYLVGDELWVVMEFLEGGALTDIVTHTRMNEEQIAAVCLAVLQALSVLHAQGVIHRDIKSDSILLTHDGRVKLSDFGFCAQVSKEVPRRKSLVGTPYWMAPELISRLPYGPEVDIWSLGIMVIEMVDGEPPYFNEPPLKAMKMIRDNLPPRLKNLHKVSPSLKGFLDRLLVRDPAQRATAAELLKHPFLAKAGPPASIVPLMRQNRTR
row,Compound,Kd [µM]
1,CCOc1cc2ncc(C#N)c(Nc3ccc(F)c(Cl)c3)c2cc1NC(=O)/C=C/CN(C)C [PELITINIB],> 10
2,Oc1ccc(-c2nc(-c3ccncc3)c(-c3ccc(F)cc3)[nH]2)cc1 [SB-202190],> 10
3,COCC(=O)NC/C=C/c1ccc2ncnc(Nc3ccc(Oc4ccc(C)nc4)c(C)c3)c2c1 [CP-724714],> 10
4,NC(=O)c1ccc(-c2nc(-c3ccc4c(c3)OCO4)c(-c3ccccn3)[nH]2)cc1 [SB-431542],> 10
